Measurements taken from US7935674B2, “Indole derivatives” (Mitsubishi Tanabe Pharma Corporation, priority 2005, dated 2011).
Read-outs that look alike come from different tables or passages of the source.

Experiments:
[1] = target: T1, human SGLT2 (Homo sapiens, UniProt P31639); test: Assay for SGLT2 inhibition (14C-AMG uptake in CHOK1 cells expressing human SGLT2); format: cell-based
T1 construct: expressed in transfected cells; host or cells: CHOK1 (Chinese hamster ovary) cells, kept under Geneticin selection
T1 sequence (P31639 1-672): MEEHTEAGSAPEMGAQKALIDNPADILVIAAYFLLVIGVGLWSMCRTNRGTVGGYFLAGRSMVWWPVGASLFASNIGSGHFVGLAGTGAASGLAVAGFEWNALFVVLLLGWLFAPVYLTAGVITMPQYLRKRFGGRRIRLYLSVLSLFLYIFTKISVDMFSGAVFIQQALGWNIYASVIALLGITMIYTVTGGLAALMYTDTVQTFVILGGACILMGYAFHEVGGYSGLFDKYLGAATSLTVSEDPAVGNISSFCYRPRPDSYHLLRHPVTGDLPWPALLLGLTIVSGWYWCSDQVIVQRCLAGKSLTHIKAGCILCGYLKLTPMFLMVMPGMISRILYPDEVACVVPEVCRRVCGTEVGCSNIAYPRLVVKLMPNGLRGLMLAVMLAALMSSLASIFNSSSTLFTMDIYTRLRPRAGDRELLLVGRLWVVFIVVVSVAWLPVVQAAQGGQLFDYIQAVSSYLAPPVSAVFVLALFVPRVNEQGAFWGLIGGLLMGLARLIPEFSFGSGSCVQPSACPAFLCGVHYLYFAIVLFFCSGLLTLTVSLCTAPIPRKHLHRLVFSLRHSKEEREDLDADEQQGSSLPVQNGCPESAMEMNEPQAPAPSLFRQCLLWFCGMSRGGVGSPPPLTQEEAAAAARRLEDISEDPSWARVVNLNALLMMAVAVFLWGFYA
Procedure: 1. Assay for SGLT2 Inhibition
Compounds described in the above examples were used for the SGLT2 inhibition assay.
CHOK1 cells expressing human SGLT2 were seeded in 24-well plates at a density of 400,000 cells/well in F-12 nutrient mixture (Ham's F-12) containing 10% fetal bovine serum, 400 μg/ml Geneticin, 50 units/ml sodium penicillin G (Gibco-BRL) and 50 μg/ml streptomycin sulfate. After 2 days of culture at 37° C. in a humidified atmosphere containing 5% CO2, cells were washed once with the assay buffer (137 mM NaCl, 5 mM KCl, 1 mM CaCl2, 1 mM MgCl2, 50 mM Hepes, and 20 mM Tris, pH 7.4) and incubated with 250 μl of the buffer containing test compounds for 10 min at 37° C. Test compounds were dissolved in DMSO. The final concentration of DMSO was 0.5%. The transport reaction was initiated by addition of 50 μl [^14C]-methyl-α-D-glucopyranoside (^14C-AMG) solution (final concentration, 0.5 mM). After incubation for 2 hours at 37° C., the uptake was stopped by aspiration of the incubation mixture, the cells were washed three times with ice-cold PBS. Then, cells were solubilized with 0.3 N NaOH and aliquots were taken for determination of radioactivity by a liquid scintillation counter. Nonspecific AMG uptake was defined as that which occurred in the presence of 100 μM of phlorizin, a specific inhibitor of sodium-dependent glucose cotransporter. Specific uptake was normalized for the protein concentrations measured by the method of Bradford. The 50% inhibitory concentration (IC50) values were calculated from dose-response curves by least square method.

[2] = tested on: Sprague-Dawley (SD) rats; test: Urinary glucose excretion test in rats; format: in vivo, rat; details: male SD rats; 30 mg/kg by oral gavage; urine collected for 24 hours; daily amount of glucose excreted in urine per individual
Procedure: 2. Urinary Glucose Excretion Test in Rats Test Compounds:
Compounds described in the above examples were used for the Urinary glucose excretion test in rats.
6-week-old male Sprague-Dawley (SD) rats were housed in individual metabolic cages with free access to food and water from 2 days prior to the experiment. On the morning of the experiment, rats were administered vehicle (0.2% carboxymethyl cellulose solution containing 0.2% Tween80) or test compounds (30 mg/kg) by oral gavage at a volume of 10 ml/kg. Then, urine of the rat was collected for 24 hours, and the urine volume was measured. Subsequently, the glucose concentration in urine was quantified using the enzymatic assay kit and the daily amount of glucose excreted in urine per individual was calculated.

[3] = CHOK1 cells expressing human SGLT2, 14C-AMG uptake, 0.5 mM, 2 hours at 37° C., read-out: IC50

OC[C@H]1O[C@@H](n2cc(Cc3ccc(OCCCl)cc3)c3c(Cl)cccc32)[C@H](O)[C@@H](O)[C@@H]1O [Example 19, 4-Chloro-3-(4-(2-chloroethyloxy)phenylmethyl)-1-(β-D-gluco-pyranosyl)indole]
IC50 [1, 3]: 3.9 nM | Urinary glucose [2]: A (A≧2400 mg)

OC[C@H]1O[C@@H](n2cc(Cc3ccc4occc4c3)c3c(F)cccc32)[C@H](O)[C@@H](O)[C@@H]1O [Example 20, 3-(Benzo[b]furan-5-yl-methyl)-4-fluoro-1-(β-D-glucopyranosyl) indole]
IC50 [1, 3]: 5.7 nM | Urinary glucose [2]: A (A≧2400 mg)

OC[C@H]1O[C@@H](n2cc(Cc3ccc(C(F)F)cc3)c3c(F)cccc32)[C@H](O)[C@@H](O)[C@@H]1O [Example 25, 3-(4-(Difluoromethyl)phenylmethyl)-4-fluoro-1-(β-D-gluco-pyranosyl)indole]
IC50 [1, 3]: 11 nM | Urinary glucose [2]: B (2400 mg>B≧2000 mg)

OC[C@H]1O[C@@H](n2cc(Cc3ccc(OC(F)F)cc3)c3c(F)cccc32)[C@H](O)[C@@H](O)[C@@H]1O [Example 26, 3-(4-(Difluoromethoxy)phenylmethyl)-4-fluoro-1-(β-D-gluco-pyranosyl)indole]
IC50 [1, 3]: 11 nM | Urinary glucose [2]: A (A≧2400 mg)

OC[C@H]1O[C@@H](n2cc(Cc3ccc(F)cc3)c3c(Cl)cccc32)[C@H](O)[C@@H](O)[C@@H]1O [Example 27, 4-Chloro-3-(4-fluorophenylmethyl)-1-(β-D-glucopyranosyl)-indole]
IC50 [1, 3]: 16 nM | Urinary glucose [2]: B (2400 mg>B≧2000 mg)

CCOc1ccc(Cc2cn([C@@H]3O[C@H](CO)[C@@H](O)[C@H](O)[C@H]3O)c3cc(Cl)cc(Cl)c23)cc1 [Example 28, 4,6-Dichloro-3-(4-ethoxyphenylmethyl)-1-(β-D-glucopyranosyl)-indole]
IC50 [1, 3]: 3.2 nM | Urinary glucose [2]: B (2400 mg>B≧2000 mg)

OC[C@H]1O[C@@H](n2cc(Cc3ccc(OC(F)(F)F)cc3)c3c(Cl)cccc32)[C@H](O)[C@@H](O)[C@@H]1O [Example 29, 4-Chloro-3-(4-(trifluoromethoxy)phenylmethyl)-1-(β-D-gluco-pyranosyl)indole]
IC50 [1, 3]: 9.6 nM | Urinary glucose [2]: B (2400 mg>B≧2000 mg)

OC[C@H]1O[C@@H](n2cc(Cc3ccc(C(F)F)cc3)c3c(Cl)cccc32)[C@H](O)[C@@H](O)[C@@H]1O [Example 30, 4-Chloro-3-(4-(difluoromethyl)phenylmethyl)-1-(β-D-gluco-pyranosyl)indole]
IC50 [1, 3]: 3.2 nM | Urinary glucose [2]: A (A≧2400 mg)

OC[C@H]1O[C@@H](n2cc(Cc3ccc(OC(F)F)cc3)c3c(Cl)cccc32)[C@H](O)[C@@H](O)[C@@H]1O [Example 31, 4-Chloro-3-(4-(difluoromethoxy)phenylmethyl)-1-(β-D-gluco-pyranosyl)indole]
IC50 [1, 3]: 2.6 nM | Urinary glucose [2]: A (A≧2400 mg)

OC[C@H]1O[C@@H](n2cc(Cc3ccc4occc4c3)c3c(Cl)cc(Cl)cc32)[C@H](O)[C@@H](O)[C@@H]1O [Example 32, 3-(Benzo[b]furan-5-yl-methyl)-4,6-dichloro-1-(β-D-gluco-pyranosyl)indole]
IC50 [1, 3]: 7.5 nM | Urinary glucose [2]: B (2400 mg>B≧2000 mg)

OC[C@H]1O[C@@H](n2cc(Cc3ccc(I)cc3)c3c(Cl)cccc32)[C@H](O)[C@@H](O)[C@@H]1O [Example 33, 4-Chloro-3-(4-iodophenylmethyl)-1-(β-D-glucopyranosyl)-indole]
IC50 [1, 3]: 4.1 nM | Urinary glucose [2]: A (A≧2400 mg)

OC[C@H]1O[C@@H](n2cc(Cc3ccc4occc4c3)c3c(Cl)c(F)ccc32)[C@H](O)[C@@H](O)[C@@H]1O [Example 34, 3-(Benzo[b]furan-5-yl-methyl)-4-chloro-5-fluoro-1-(β-D-gluco-pyranosyl)indole]
IC50 [1, 3]: 11 nM | Urinary glucose [2]: B (2400 mg>B≧2000 mg)

CCOc1ccc(Cc2cn([C@@H]3O[C@H](CO)[C@@H](O)[C@H](O)[C@H]3O)c3ccc(F)c(Cl)c23)cc1 [Example 35, 4-Chloro-3-(4-ethoxyphenylmethyl)-5-fluoro-1-(β-D-gluco-pyranosyl)indole]
IC50 [1, 3]: 9.1 nM | Urinary glucose [2]: A (A≧2400 mg)

OC[C@H]1O[C@@H](n2cc(Cc3ccc(I)cc3)c3c(Cl)cc(Cl)cc32)[C@H](O)[C@@H](O)[C@@H]1O [Example 36, 4,6-Dichloro-3-(4-iodophenylmethyl)-1-(β-D-glucopyranosyl)-indole]
IC50 [1, 3]: 14 nM | Urinary glucose [2]: B (2400 mg>B≧2000 mg)

OC[C@H]1O[C@@H](n2cc(Cc3ccc(I)cc3)c3c(Cl)c(F)ccc32)[C@H](O)[C@@H](O)[C@@H]1O [Example 37, 4-Chloro-5-fluoro-3-(4-iodophenylmethyl)-1-(β-D-gluco-pyranosyl)indole]
IC50 [1, 3]: 14 nM | Urinary glucose [2]: B (2400 mg>B≧2000 mg)

Cc1cccc2c1c(Cc1ccc(Br)cc1)cn2[C@@H]1O[C@H](CO)[C@@H](O)[C@H](O)[C@H]1O [Example 38, 3-(4-Bromophenylmethyl)-4-methyl-1-(β-D-glucopyranosyl)-indole]
IC50 [1, 3]: 12 nM | Urinary glucose [2]: B (2400 mg>B≧2000 mg)

Cc1cccc2c1c(Cc1ccc(I)cc1)cn2[C@@H]1O[C@H](CO)[C@@H](O)[C@H](O)[C@H]1O [Example 39, 3-(4-Iodophenylmethyl)-4-methyl-1-(β-D-glucopyranosyl)indole]
IC50 [1, 3]: 3.6 nM | Urinary glucose [2]: B (2400 mg>B≧2000 mg)

Cc1cccc2c1c(Cc1ccc3occc3c1)cn2[C@@H]1O[C@H](CO)[C@@H](O)[C@H](O)[C@H]1O [Example 40, 3-(Benzo[b]furan-5-yl-methyl)-4-methyl-1-(β-D-glucopyranosyl)indole]
IC50 [1, 3]: 6.2 nM | Urinary glucose [2]: B (2400 mg>B≧2000 mg)

OC[C@H]1O[C@@H](n2cc(Cc3ccc(Br)cc3)c3c(Br)cccc32)[C@H](O)[C@@H](O)[C@@H]1O [Example 41, 4-Bromo-3-(4-bromophenylmethyl)-1-(β-D-glucopyranosyl)indole]
IC50 [1, 3]: 12 nM | Urinary glucose [2]: B (2400 mg>B≧2000 mg)

OC[C@H]1O[C@@H](n2cc(Cc3ccc(I)cc3)c3c(Br)cccc32)[C@H](O)[C@@H](O)[C@@H]1O [Example 42, 4-Bromo-3-(4-iodophenylmethyl)-1-(β-D-glucopyranosyl)indole]
IC50 [1, 3]: 6.1 nM | Urinary glucose [2]: A (A≧2400 mg)

OC[C@H]1O[C@@H](n2cc(Cc3ccc4occc4c3)c3c(Br)cccc32)[C@H](O)[C@@H](O)[C@@H]1O [Example 43, 3-(Benzo[b]furan-5-yl-methyl)-4-bromo-1-(β-D-glucopyranosyl)-indole]
IC50 [1, 3]: 8.4 nM | Urinary glucose [2]: A (A≧2400 mg)

OC[C@H]1O[C@@H](n2cc(Cc3ccc(Cl)cc3)c3c(Br)cccc32)[C@H](O)[C@@H](O)[C@@H]1O [Example 44, 4-Bromo-3-(4-chlorophenylmethyl)-1-(β-D-glucopyranosyl)indole]
IC50 [1, 3]: 20 nM | Urinary glucose [2]: B (2400 mg>B≧2000 mg)

OC[C@H]1O[C@@H](n2cc(Cc3ccc(O)cc3)c3c(Cl)cccc32)[C@H](O)[C@@H](O)[C@@H]1O [Example 46, 4-Chloro-3-(4-hydroxyphenylmethyl)-1-(β-D-glucopyranosyl)-indole]
IC50 [1, 3]: 2.4 nM | Urinary glucose [2]: A (A≧2400 mg)

Cc1cccc2c1c(Cc1ccc(C3CC3)cc1)cn2[C@@H]1O[C@H](CO)[C@@H](O)[C@H](O)[C@H]1O [Example 47, 3-(4-Cyclopropylphenylmethyl)-4-methyl-1-(β-D-gluco-pyranosyl)indole]
IC50 [1]: 1.6 nM | Urinary glucose [2]: A (A≧2400 mg)
